Laboratory results from US20260200939A1, “MOLECULAR GLUE DEGRADER COMPOUNDS AND USES THEREOF” (Novartis AG, priority 2022, published 2026).

These compounds were tested against T1, CDK4 (Homo sapiens, UniProt P11802) (assay: CDK4 Degradation Assay, Western blotting).
T1 construct: endogenous in cells; host or cells: C33A
Format: cell-based
Description: C33A cells were purchased from American Type Culture Collection (ATCC) and were cultured in Dulbecco's Modified Eagle Medium (DMEM) containing 10% (v/v) fetal bovine serum (FBS) and maintained at 37° C. with 5% CO2. 22RV1 cells were purchased from the ATCC and were cultured in RPMI-1640 Medium containing 10% (v/v) FBS and maintained at 37° C. with 5% CO2. HEK293T cells were obtained from the UC Berkeley Cell Culture Facility and were cultured in DMEM containing 10% (v/v) FBS and maintained at 37° C. with 5% CO2. K562 cells were obtained from the UC Berkeley Cell Culture Facility and were cultured in Iscove's Modified Dulbecco's Medium (IMDM) containing 10% (v/v) FBS and maintained at 37° C. with 5% CO2. MV-4-11 cells were obtained from the ATCC and were cultured in IMDM containing 10% (v/v) FBS and maintained at 37° C. with 5% CO2. A549 cells were obtained from the ATCC and were cultured in F-12K Medium containing 10% (v/v) FBS and maintained at 37° C. with 5% CO2. Mino cells were obtained from the ATCC and were cultured in RPMI-1640 Medium containing 10% (v/v) FBS and maintained at 37° C. with 5% CO2. LNCaP cells were obtained from the ATCC and were cultured in RPMI-1640 Medium containing 10% (v/v) FBS and maintained at 37° C. with 5% CO2. Unless otherwise specified, all cell culture materials were purchased from Gibco. It is not known whether HEK293T cells are from male or female origin.
Cells were washed twice with cold PBS, scraped, and pelleted by centrifugation (700 g, 5 min, 4° C.). Pellets were resuspended in PBS, sonicated, clarified by centrifugation (12,000 g, 10 min, 4° C.), and lysate was transferred to new low-adhesion microcentrifuge tubes. Proteome concentrations were determined using BCA assay and lysate was diluted to appropriate working concentrations.
Proteins were resolved by SDS/PAGE and transferred to nitrocellulose membranes using the Trans-Blot Turbo transfer system (Bio-Rad). Membranes were blocked with 5% BSA in Tris-buffered saline containing Tween 20 (TBS-T) solution for 30 min at RT, washed in TBS-T, and probed with primary antibody diluted in recommended diluent per manufacturer overnight at 4° C. After 3 washes with TBS-T, the membranes were incubated in the dark with IR680- or IR800-conjugated secondary antibodies at 1:10,000 dilution in 5% BSA in TBS-T at RT for 1 h. After 3 additional washes with TBST, blots were visualized using an Odyssey Li-Cor fluorescent scanner. The membranes were stripped using ReBlot Plus Strong Antibody Stripping Solution (EMD Millipore) when additional primary antibody incubations were performed. Antibodies used in this study were CDK4 (Abcam ab108357), Vinculin (Abcam ab129002), GAPDH (Cell Signaling Technology 14C10), RNF126 (Santa Cruz Biotechnology sc-376005), BRD4 (Abcam ab128874), Beta Actin (Cell Signaling Technology 13E5), PDE5 (Abcam ab259945), AR-V7 (Abcam ab273500), c-Abl (Santa Cruz Biotechnology sc-23), SMARCA2 (Abcam ab240648), LRRK2 (Abcam ab133474), BTK (Cell Signaling Technology D3H5), Androgen Receptor (Abcam ab133273).

| Structure (SMILES) | DC50 [µM] |
| --- | --- |
| COc1ccc(C(=O)/C(C)=C/C(=O)N2CCN(c3ccc(Nc4ncc5cc(C(=O)N(C)C)n(C6CCCC6)c5n4)nc3)CC2)cc1 [Compound 146, (E)-7-cyclopentyl-2-((5-(4-(4-(4-methoxyphenyl)-3-methyl-4-oxobut-2-enoyl)piperazin-1-yl)pyridin-2-yl)amino)-N,N-dimethyl-7H-pyrrolo[2,3-d]pyrimidine-6-carboxamide] | > 10 |
| COc1ccccc1C(=O)/C=C/C(=O)N1CCN(c2ccc(Nc3ncc4cc(C(=O)N(C)C)n(C5CCCC5)c4n3)nc2)CC1 [Compound 148, (E)-7-cyclopentyl-2-((5-(4-(4-(2-methoxyphenyl)-4-oxobut-2-enoyl)piperazin-1-yl)pyridin-2-yl)amino)-N,N-dimethyl-7H-pyrrolo[2,3-d]pyrimidine-6-carboxamide] | > 10 |
| CN(C)C(=O)c1cc2cnc(Nc3ccc(N4CCN(C(=O)/C=C/C(=O)c5ccccc5Br)CC4)cn3)nc2n1C1CCCC1 [Compound 159, (E)-2-((5-(4-(4-(2-bromophenyl)-4-oxobut-2-enoyl)piperazin-1-yl)pyridin-2-yl)amino)-7-cyclopentyl-N,N-dimethyl-7H-pyrrolo[2,3-d]pyrimidine-6-carboxamide] | > 10 |
| COc1ccc(C(=O)/C=C(\C)C(=O)N2CCN(c3ccc(Nc4ncc5cc(C(=O)N(C)C)n(C6CCCC6)c5n4)nc3)CC2)cc1 [Compound 160, (E)-7-cyclopentyl-2-((5-(4-(4-(4-methoxyphenyl)-2-methyl-4-oxobut-2-enoyl)piperazin-1-yl)pyridin-2-yl)amino)-N,N-dimethyl-7H-pyrrolo[2,3-d]pyrimidine-6-carboxamide] | > 10 |
| CN(C)C(=O)c1cc2cnc(Nc3ccc(N4CCN(C(=O)/C=C/C(=O)c5cccc(C(F)(F)F)c5)CC4)cn3)nc2n1C1CCCC1 [Compound 165, (E)-7-cyclopentyl-N,N-dimethyl-2-((5-(4-(4-oxo-4-(3-(trifluoromethyl)phenyl)but-2-enoyl)piperazin-1-yl)pyridin-2-yl)amino)-7H-pyrrolo[2,3-d]pyrimidine-6-carboxamide] | > 10 |
| COc1ccc(C(=O)/C=C(\C#N)C(=O)N2CCN(c3ccc(Nc4ncc5cc(C(=O)N(C)C)n(C6CCCC6)c5n4)nc3)CC2)cc1 [Compound 256, (E)-2-((5-(4-(2-cyano-4-(4-methoxyphenyl)-4-oxobut-2-enoyl)piperazin-1-yl)pyridin-2-yl)amino)-7-cyclopentyl-N,N-dimethyl-7H-pyrrolo[2,3-d]pyrimidine-6-carboxamide] | > 10 |
| Cc1ccccc1C(=O)/C=C/C(=O)N1CCN(c2ccc(Nc3ncc4cc(C(=O)N(C)C)n(C5CCCC5)c4n3)nc2)CC1 [Compound 263, (E)-7-cyclopentyl-N,N-dimethyl-2-((5-(4-(4-oxo-4-(o-tolyl)but-2-enoyl)piperazin-1-yl)pyridin-2-yl)amino)-7H-pyrrolo[2,3-d]pyrimidine-6-carboxamide] | > 10 |
| COc1ccc(C(=O)/C=C/C(=O)N2CCN(c3ccc(Nc4ncc5cc(C(=O)N(C)C)n(C6CCCC6)c5n4)nc3)CC2)c(F)c1 [Compound 264, (E)-7-cyclopentyl-2-((5-(4-(4-(2-fluoro-4-methoxyphenyl)-4-oxobut-2-enoyl)piperazin-1-yl)pyridin-2-yl)amino)-N,N-dimethyl-7H-pyrrolo[2,3-d]pyrimidine-6-carboxamide] | > 10 |
| COc1cc(F)ccc1C(=O)/C=C/C(=O)N1CCN(c2ccc(Nc3ncc4cc(C(=O)N(C)C)n(C5CCCC5)c4n3)nc2)CC1 [Compound 265, (E)-7-cyclopentyl-2-((5-(4-(4-(4-fluoro-2-methoxyphenyl)-4-oxobut-2-enoyl)piperazin-1-yl)pyridin-2-yl)amino)-N,N-dimethyl-7H-pyrrolo[2,3-d]pyrimidine-6-carboxamide] | > 10 |

Next, values leading:

| DC50 [µM] | Structure (SMILES) |
| --- | --- |
| > 10 | CN(C)C(=O)c1cc2cnc(Nc3ccc(N4CCN(C(=O)/C=C/C(=O)c5ccc(F)cc5)CC4)cn3)nc2n1C1CCCC1 [Compound 151, (E)-7-cyclopentyl-2-((5-(4-(4-(4-fluorophenyl)-4-oxobut-2-enoyl)piperazin-1-yl)pyridin-2-yl)amino)-N,N-dimethyl-7H-pyrrolo[2,3-d]pyrimidine-6-carboxamide] |
| > 10 | CN(C)C(=O)c1cc2cnc(Nc3ccc(N4CCN(C(=O)/C=C/C(=O)c5ccccc5Cl)CC4)cn3)nc2n1C1CCCC1 [Compound 158, (E)-2-((5-(4-(4-(2-chlorophenyl)-4-oxobut-2-enoyl)piperazin-1-yl)pyridin-2-yl)amino)-7-cyclopentyl-N,N-dimethyl-7H-pyrrolo[2,3-d]pyrimidine-6-carboxamide] |
| > 10 | CN(C)C(=O)c1cc2cnc(Nc3ccc(N4CCN(C(=O)/C=C/C(=O)c5ccc6c(c5)OCCO6)CC4)cn3)nc2n1C1CCCC1 [Compound 255, (E)-7-cyclopentyl-2-((5-(4-(4-(2,3-dihydrobenzo[b][1,4]dioxin-6-yl)-4-oxobut-2-enoyl)piperazin-1-yl)pyridin-2-yl)amino)-N,N-dimethyl-7H-pyrrolo[2,3-d]pyrimidine-6-carboxamide] |
| > 10 | CN(C)C(=O)c1cc2cnc(Nc3ccc(N4CCN(C(=O)/C=C/C(=O)c5ccc6c(c5)NC(=O)CO6)CC4)cn3)nc2n1C1CCCC1 [Compound 257, (E)-7-cyclopentyl-N,N-dimethyl-2-((5-(4-(4-oxo-4-(3-oxo-3,4-dihydro-2H-benzo[b][1,4]oxazin-6-yl)but-2-enoyl)piperazin-1-yl)pyridin-2-yl)amino)-7H-pyrrolo[2,3-d]pyrimidine-6-carboxamide] |
| > 10 | CN(C)C(=O)c1cc2cnc(Nc3ccc(N4CCN(C(=O)/C=C/C(=O)c5ccccc5)CC4)cn3)nc2n1C1CCCC1 [Compound 258, (E)-7-cyclopentyl-N,N-dimethyl-2-((5-(4-(4-oxo-4-phenylbut-2-enoyl)piperazin-1-yl)pyridin-2-yl)amino)-7H-pyrrolo[2,3-d]pyrimidine-6-carboxamide] |
| > 10 | CN(C)C(=O)c1cc2cnc(Nc3ccc(N4CCN(C(=O)/C=C/C(=O)c5cccc(Br)c5)CC4)cn3)nc2n1C1CCCC1 [Compound 259, (E)-2-((5-(4-(4-(3-bromophenyl)-4-oxobut-2-enoyl)piperazin-1-yl)pyridin-2-yl)amino)-7-cyclopentyl-N,N-dimethyl-7H-pyrrolo[2,3-d]pyrimidine-6-carboxamide] |
| > 10 | CN(C)C(=O)c1cc2cnc(Nc3ccc(N4CCN(C(=O)/C=C/C(=O)c5ccc6c(c5)OCC6)CC4)cn3)nc2n1C1CCCC1 [Compound 260, (E)-7-cyclopentyl-2-((5-(4-(4-(2,3-dihydrobenzofuran-6-yl)-4-oxobut-2-enoyl)piperazin-1-yl)pyridin-2-yl)amino)-N,N-dimethyl-7H-pyrrolo[2,3-d]pyrimidine-6-carboxamide] |
| > 10 | CN(C)C(=O)c1cc2cnc(Nc3ccc(N4CCN(C(=O)/C=C/C(=O)c5ccc6c(c5)CCO6)CC4)cn3)nc2n1C1CCCC1 [Compound 261, (E)-7-cyclopentyl-2-((5-(4-(4-(2,3-dihydrobenzofuran-5-yl)-4-oxobut-2-enoyl)piperazin-1-yl)pyridin-2-yl)amino)-N,N-dimethyl-7H-pyrrolo[2,3-d]pyrimidine-6-carboxamide] |
| 1 to 10 | Cc1ccc(C(=O)/C=C/C(=O)N2CCN(c3ccc(Nc4ncc5cc(C(=O)N(C)C)n(C6CCCC6)c5n4)nc3)CC2)cc1 [Compound 262, (E)-7-cyclopentyl-N,N-dimethyl-2-((5-(4-(4-oxo-4-(p-tolyl)but-2-enoyl)piperazin-1-yl)pyridin-2-yl)amino)-7H-pyrrolo[2,3-d]pyrimidine-6-carboxamide] |
| > 10 | COc1ccc(C(=O)/C=C/C(=O)N2CCN(c3ccc(Nc4ncc5cc(C(=O)N(C)C)n(C6CCCC6)c5n4)nc3)CC2)cc1F [Compound 266, (E)-7-cyclopentyl-2-((5-(4-(4-(3-fluoro-4-methoxyphenyl)-4-oxobut-2-enoyl)piperazin-1-yl)pyridin-2-yl)amino)-N,N-dimethyl-7H-pyrrolo[2,3-d]pyrimidine-6-carboxamide] |
